Test results reported in patent US20070185094A1, “Novel 3-substitued-1,4-benzodiazepines” (ASTON UNIVERSITY, priority 2003, published 2007).
Where two headings read alike, the source gives them in different places.

How the values were obtained:
CCKB receptor [1] = details: cited from earlier work
CCKB receptor [2] = target: T1, CCKB receptor (Cavia porcellus, UniProt H0VZC5); assay: 125I-CCK-8 receptor binding assay, CCKB (guinea pig cerebral cortex)
T1 sequence (H0VZC5 1-426): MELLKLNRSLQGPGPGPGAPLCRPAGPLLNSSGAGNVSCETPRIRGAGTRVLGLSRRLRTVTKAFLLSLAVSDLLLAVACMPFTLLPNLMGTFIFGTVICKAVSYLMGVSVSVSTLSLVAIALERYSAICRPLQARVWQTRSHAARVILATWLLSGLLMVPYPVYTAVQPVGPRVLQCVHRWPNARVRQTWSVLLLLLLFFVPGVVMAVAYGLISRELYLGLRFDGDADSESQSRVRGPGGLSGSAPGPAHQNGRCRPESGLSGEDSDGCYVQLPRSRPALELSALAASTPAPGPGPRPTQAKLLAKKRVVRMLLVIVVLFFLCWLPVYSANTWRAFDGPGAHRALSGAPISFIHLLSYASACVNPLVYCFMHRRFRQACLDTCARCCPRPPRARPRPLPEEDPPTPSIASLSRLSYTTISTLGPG
Description: CCKA and CCKB receptor binding assays were performed, by using guinea pig cerebral cortex (CCKB) or rat pancreas (CCKA). […]. J. Pharmacol., 269, 249-254]. Pancreatic membranes were prepared in a similar way but by Charpentier et al [(1988), Cyclic cholecystokinin analogues with high selectivity for central receptors., Proc Natl Acad Sci USA, 85, 1968-1972]. The […] CCK binding assay: Tissues were homogenised in ice cold sucrose (0.32 M, 25 ml) for 15 strokes at 500 rpm and centrifuged at 13000 rpm for 10 mins. The supernatant was re-centrifuged at 13000 rpm for 20 mins. The resulting pellet was re-dispersed to the required volume of buffer at 500 rpm and stored in aliquots at […].
(§1) The samples were incubated {with membranes (0.1 mg/ml)} in 20 mM Hepes, 1 mM EGTA, 5 mM MgCl2, 150 mm NaCl, 0.25 mg/ml bacitracin at pH 6.5 for 2 hrs at RT and then […] by centrifugation at 1100 rpm for 5 minutes. The membrane pellets were washed twice with water and the bound radioactivity was measured in a Packard Cobra Auto-gamma counter (B5005). All binding assays were carried out with L-363, 260 as an internal non-specific standard. Controls (no compound) were also added. All samples were made in duplicate and repeated twice. All compounds were initially screened for percentage inhibition at 20 μM.

CCKA receptor = target: T2, CCKA receptor (Rattus norvegicus, UniProt P30551); assay: 125I-CCK-8 receptor binding assay, CCKA (rat pancreas); details: for Ratio CCKB:CCKA: ratio of IC50 values; for CCKA binding activity in words: dimethylanilines with at least one meta group
T2 construct: Pancreatic membranes were prepared in a similar way; from tissue; host or cells: rat pancreas membranes
T2 sequence (P30551 1-444): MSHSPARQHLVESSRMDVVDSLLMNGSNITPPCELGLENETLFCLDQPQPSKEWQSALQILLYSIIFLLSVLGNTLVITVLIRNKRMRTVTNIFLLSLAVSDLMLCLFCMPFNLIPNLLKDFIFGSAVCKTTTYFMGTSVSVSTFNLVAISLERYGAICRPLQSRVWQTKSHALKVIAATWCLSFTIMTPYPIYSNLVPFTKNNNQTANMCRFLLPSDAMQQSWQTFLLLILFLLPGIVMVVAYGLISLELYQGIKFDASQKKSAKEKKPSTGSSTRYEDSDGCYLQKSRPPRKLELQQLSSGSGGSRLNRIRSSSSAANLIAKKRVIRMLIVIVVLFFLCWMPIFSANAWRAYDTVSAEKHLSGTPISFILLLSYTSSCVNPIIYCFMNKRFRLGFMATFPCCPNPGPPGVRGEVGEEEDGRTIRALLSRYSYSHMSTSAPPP
Description: CCKA and CCKB receptor binding assays were performed, by using guinea pig cerebral cortex (CCKB) or rat pancreas (CCKA). Male guinea pig brain tissues were prepared according to the modified method described by Saita et al [(1994), Characterization of YM022: its CCKB/gastrin receptor binding profile and antagonism to CCK-8-induced Ca2+ mobilization., Eur. J. Pharmacol., 269, 249-254]. Pancreatic membranes were prepared in a similar way but by Charpentier et al [(1988), Cyclic cholecystokinin analogues with high selectivity for central receptors., Proc Natl Acad Sci USA, 85, 1968-1972]. The […] CCK binding assay: Tissues were homogenised in ice cold sucrose (0.32 M, 25 ml) for 15 strokes at 500 rpm and centrifuged at 13000 rpm for 10 mins. The supernatant was re-centrifuged at 13000 rpm for 20 mins. The resulting pellet was re-dispersed to the required volume of buffer at 500 rpm and stored in aliquots at […].
as §1

[3] = as the HCl salt; cited from earlier work
[4] = mice, after intravenous injections; cited from earlier work
[5] = satiated rats; cited from earlier work
MIA-PaCa2 cells = details: cited from earlier work; for IC50: MIA-PaCa2, read-out: IC50 cytotoxicity
CCKB/gastrin receptor = details: cited from earlier work
HT29-S-B6 cells = details: 10 μM, at least 3 days, exponential phase; cited from earlier work
[6] = system: advanced pancreatic cancer; details: 18 patients; cited from earlier work
[7] = target: T3, pancreatic and gallbladder CCK receptors (Homo sapiens, UniProt P32238); details: cited from earlier work
T3 sequence (P32238 1-428): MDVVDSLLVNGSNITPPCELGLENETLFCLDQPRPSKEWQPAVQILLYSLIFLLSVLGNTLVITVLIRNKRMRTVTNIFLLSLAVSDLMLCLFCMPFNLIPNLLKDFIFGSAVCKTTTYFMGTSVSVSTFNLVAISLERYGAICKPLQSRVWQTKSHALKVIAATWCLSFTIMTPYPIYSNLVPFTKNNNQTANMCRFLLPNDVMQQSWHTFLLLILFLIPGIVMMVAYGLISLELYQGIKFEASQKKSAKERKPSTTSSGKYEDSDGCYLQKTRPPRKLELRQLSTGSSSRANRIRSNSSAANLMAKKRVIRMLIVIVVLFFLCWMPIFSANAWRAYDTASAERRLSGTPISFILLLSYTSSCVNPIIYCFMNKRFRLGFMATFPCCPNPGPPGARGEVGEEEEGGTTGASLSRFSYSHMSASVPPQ

## Cc1cccc(NC(=O)NC2N=C(C3CCCCC3)c3ccccc3N(C)C2=O)c1 [L-708,474]
CCKB receptor [1]
  IC50: 0.28 nM
  selectivity for CCKB receptors over CCKA: 6,500 fold

## Cc1cccc(N(C)C2N=C(c3ccccc3)c3cc(Cl)ccc3NC2=O)c1 (stereo not shown) [Example 55, 7-chloro-3-(3-dimethylanilino)-5-phenyl-1,3-dihydro-2H-1,4-benzodiazepin-2-one]
CCKB receptor [2]; IC50 CCKB
  IC50: 70 nM
CCKA receptor
  IC50: 8 nM
CCKA receptor; Table 3
  Ratio CCKB:CCKA: 9

## Cc1cc(C)cc(NC2N=C(c3ccccc3)c3cc(Cl)ccc3NC2=O)c1 (stereo not shown) [Example 50]
CCKB receptor [2]; IC50 CCKB, Table 3
  IC50: 2900 nM
CCKA receptor; Table 3
  IC50: 9 nM
  Ratio CCKB:CCKA: 322
CCKA receptor
  CCKA binding activity in words: equally active

## Cc1cccc(NC(=O)NC2N=C(N3CC4CCC(C4)C3)c3ccccc3N(C)C2=O)c1 [L-740,093]
[3]
  water solubility compared to L-365,260: one hundred fold improved

## Cc1ccc(NC2N=C(c3ccccc3)c3cc(Cl)ccc3NC2=O)cc1 (stereo not shown) [Example 46]
CCKB receptor [2]; IC50 CCKB, Table 3
  IC50: 4600 nM
CCKA receptor; Table 3
  IC50: 290 nM
  Ratio CCKB:CCKA: 16

## O=C1Nc2ccc(Cl)cc2C(c2ccccc2)=NC1Nc1cccc(Cl)c1 (stereo not shown) [Example 39, 7-chloro-3-(3-chloroanilino)-5-phenyl-1,3-dihydro-2H-1,4-benzodiazepin-2-one]
CCKB receptor [2]; IC50 CCKB, Table 3
  IC50: 6200 nM
CCKA receptor
  IC50: 270 nM
CCKA receptor; Table 3
  Ratio CCKB:CCKA: 23

## Cc1ccc(NC(=O)NC2N=C(C3CCCCC3)c3ccccc3N(C)C2=O)cc1Nc1nnn[nH]1 [L-737,425]
CCKB receptor [1]
  CCKA/CCKB ratio: 37000

## O=C1Nc2ccc(Cl)cc2C(c2ccccc2)=NC1Nc1cccc([N+](=O)[O-])c1 (stereo not shown) [Example 36]
CCKB receptor [2]; IC50 CCKB, Table 3
  IC50: 6000 nM
CCKA receptor
  IC50: 11 nM
CCKA receptor; Table 3
  Ratio CCKB:CCKA: 545

## Cc1cccc(NC2N=C(c3ccccc3)c3cc(Cl)ccc3NC2=O)c1C (stereo not shown) [Example 49]
CCKB receptor [2]; IC50 CCKB, Table 3
  IC50: 6000 nM
CCKA receptor; Table 3
  IC50: 18 nM
  Ratio CCKB:CCKA: 333
CCKA receptor
  CCKA binding activity in words: equally active

## Cc1cccc(NC(=O)N[C@@H]2N=C(c3ccccc3)c3ccccc3N(C)C2=O)c1 [L-365,260]
CCKB receptor [1]
  IC50: 8.5 nM
  affinity for gastrin/CCKB receptors relative to pancreatic CCKA: 80 fold
  selectivity for CCKB receptors over CCKA: 87 fold
[4]
  brain uptake: < 0.8 % dose/gram
[5]
  potency relative to Devazepide in increasing feeding frequency: 100 times

## N.N.[Cl][Pt][Cl] [DDP, cisplatin]
MIA-PaCa2 cells; 1-h exposure
  IC50: 35300 ± 3200 nM

## Cc1cccc(NC(=O)NC2N=C(c3ccccc3)c3ccccc3N(CC(=O)c3ccccc3C)C2=O)c1 (stereo not shown) [YM022]
CCKB/gastrin receptor
  CCKA/CCKB ratio: about 1300
CCKB/gastrin receptor; read-out: IC50 CCKB/gastrin receptor affinity
  IC50: 0.11 nM

## O=C1Nc2ccc(Cl)cc2C(c2ccccc2)=NC1Nc1ccccc1Cl (stereo not shown) [Example 38]
CCKB receptor [2]; IC50 CCKB, Table 3
  IC50: 9300 nM
CCKA receptor; Table 3
  IC50: > 20000 nM

## Cc1cccc(N(C)C2N=C(c3ccccc3)c3cc(Cl)ccc3N(CC(=O)C(C)(C)C)C2=O)c1 (racemic) [Example 64, 7-chloro-1-(3,3-dimethyl-2-oxobutyl)-3-(3-dimethylanilino)-5-phenyl-1,3-dihydro-2H-1,4-benzodiazepin-2-one]
CCKB receptor [2]; read-out: IC50 CCKB
  IC50: ~8 nM
CCKA receptor
  IC50: ~24 nM

## CN1C(=O)[C@@H](NC(=O)c2cc3ccccc3[nH]2)N=C(c2ccccc2)c2ccccc21 [Devazepide]
MIA-PaCa2 cells
  factor of enhancement of sensitivity of MIA-PaCa2 cells to DDP: 3.5
MIA-PaCa2 cells; constant exposure schedule
  IC50: 9500 ± 1400 nM
HT29-S-B6 cells
  enhancement of baseline production of carcinoembryonic antigens: 5 fold
  enhancement of baseline production of gastric M1 mucins: 2-3 fold
[6]
  impact on tumor progression, pain, or nutrition: failed to demonstrate any impact
  patients able to tolerate treatment: 17 of 18

## CN(c1ccccc1)C1N=C(c2ccccc2)c2cc(Cl)ccc2NC1=O (stereo not shown) [Example 54]
CCKB receptor [2]; IC50 CCKB, Table 3
  IC50: 150 nM
CCKA receptor
  IC50: 14 nM
CCKA receptor; Table 3
  Ratio CCKB:CCKA: 11

## CCN(c1cccc(C)c1)C1N=C(c2ccccc2)c2cc(Cl)ccc2NC1=O (stereo not shown) [Example 56]
CCKB receptor [2]; IC50 CCKB, Table 3
  IC50: 650 nM
CCKA receptor; Table 3
  IC50: 330 nM
  Ratio CCKB:CCKA: 2

## CC(C)C[C@@H]1N[C@H]2N(C1=O)c1ccccc1[C@@]2(O)C[C@@H]1NC(=O)c2ccccc2-n2c1nc1ccccc1c2=O [Asperlicin]
[7]
  affinity relative to proglumide: 300-400 times
